Values quoted from earlier work as cited in publication PMC2637266, “Quantification of gamma-secretase modulation differentiates inhibitor compound selectivity between two substrates Notch and amyloid precursor protein” (Molecular Brain, 2008).

Tests used:
[1] = system: γ-secretase substrates APP, ErbB-4, and Notch; parameters: method as in PMID 12777371; details: cited from earlier work
plasma Aβ40 = system: plasma Aβ40; parameters: method as in PMID 18090456, PMID 16505324, PMID 18695053; details: AD patients; cited from earlier work

In the case of CSc1ccc(/C=C2/C(C)=C(CC(=O)O)c3cc(F)ccc32)cc1 [sulindac sulphide], the “cleavage of γ-secretase substrates at the middle of transmembrane domain” value [1] is given as “specifically block the cleavage” and the “generation of intracellular domains (ICDs) of APP, ErbB-4, and Notch” value (from here on “generation of intracellular domains”) [1] is given as “without affecting the generation”.

For CC(C)[C@H](O)C(=O)N[C@@H](C)C(=O)N[C@@H]1C(=O)N(C)CCc2ccccc21.O.O [LY450139 dihydrate], the “plasma Aβ40” value (plasma Aβ40) is listed as “reduces plasma Aβ40” and the tolerability (plasma Aβ40) is listed as “well tolerated”.

In the case of COc1ccc2c(c1)c(CC(=O)O)c(C)n2C(=O)c1ccc(Cl)cc1 [indomethacin], the “cleavage of γ-secretase substrates at the middle of transmembrane domain” value [1] is listed as “specifically block the cleavage” and the “generation of intracellular domains” value [1] is listed as “without affecting the generation”.

In the case of CC(C)Cc1ccc(C(C)C(=O)O)cc1 (stereo not shown) [ibuprofen], the “generation of intracellular domains” value [1] is given as “without affecting the generation”.
